Data set [1] concerns the target Glutamate carboxypeptidase 2 (Homo sapiens, UniProt Q04609). Kind of data set: Inhibition of PSMA derived from human LNCaP cell lysate assessed as inhibition of NAAG hydrolysis incubated for 2 hrs in presence of NAAG by Amplex Red assay. It counts as subcellular.
The nature of data set [2]: Drug uptake in human 22Rv1 cells assessed as drug accumulation by measuring fluorescence signal at 4 uM incubated for 30 mins by flow cytometry. It counts as ADME, cell-based. To be noted: cwr22r, 0.5 h. On the technique in general: In flow cytometry, cells or beads pass a laser one at a time.
Another data set concerns LNCaP. Kind of data set: Cytotoxicity against human LNCaP cells assessed as reduction in cell viability incubated for 5 days by MTT assay. It counts as functional. The settings on record: 120 h, time 5 day. For orientation: Formazan colour is commonly taken as a measure of viable cells.
Data set [3] in a line: Drug uptake in human LNCaP cells assessed as drug accumulation by measuring fluorescence signal at 4 uM incubated for 30 mins by flow cytometry. The settings on record: 0.5 h. It counts as ADME, cell-based.
For the next data set, the system named is PC-3. Kind of data set: Cytotoxicity against human PC-3 cells assessed as reduction in cell viability incubated for 5 days by MTT assay. It counts as functional. To be noted: PC-3, 120 h, time 5 day.
The nature of data set [4]: Drug uptake in human PC-3 cells assessed as drug accumulation by measuring fluorescence signal at 4 uM incubated for 30 mins by flow cytometry. It counts as ADME, cell-based. To be noted: pc-3, 0.5 h.
A further data set relates to MCF7. Kind of data set: Cytotoxicity against human MCF7 cells assessed as cell growth inhibition incubated for 5 days by MTT assay. To be noted: MCF7, 120 h, time 5 day. It counts as functional.
Data set [5] in a line: Cytotoxicity against HEK293T cells assessed as cell growth inhibition incubated for 5 days by MTT assay. The settings on record: human, time 5 day. It counts as toxicity, cell-based, HEK-293T.
Data set [6] in a line: Cytotoxicity against human WI-38 VA13 cells assessed as cell growth inhibition incubated for 5 days by MTT assay. It counts as toxicity, cell-based. The settings on record: time 5 day.
For the next data set, the system named is A549. The data set is described as follows: Cytotoxicity against human A549 cells assessed as cell growth inhibition incubated for 5 days by MTT assay. It counts as functional. The settings on record: A549, 120 h, time 5 day.

pIC50, pKi: −log10 of the molar value.

From ChEMBL document CHEMBL5096171, “Synthesis and Biological Evaluation of PSMA Ligands with Aromatic Residues and Fluorescent Conjugates Based on Them” (J Med Chem, 2021) come the findings set out here.

As a reminder, the pIC50 is the IC50 on a negative log10 scale, so that one unit is a factor of ten. As usually defined, the CC50 is the concentration giving 50% cytotoxicity. Broadly, the pKi is −log10 of the Ki, conventionally taken in molar units.

Glutamate carboxypeptidase 2, sequence (Q04609 whole entry): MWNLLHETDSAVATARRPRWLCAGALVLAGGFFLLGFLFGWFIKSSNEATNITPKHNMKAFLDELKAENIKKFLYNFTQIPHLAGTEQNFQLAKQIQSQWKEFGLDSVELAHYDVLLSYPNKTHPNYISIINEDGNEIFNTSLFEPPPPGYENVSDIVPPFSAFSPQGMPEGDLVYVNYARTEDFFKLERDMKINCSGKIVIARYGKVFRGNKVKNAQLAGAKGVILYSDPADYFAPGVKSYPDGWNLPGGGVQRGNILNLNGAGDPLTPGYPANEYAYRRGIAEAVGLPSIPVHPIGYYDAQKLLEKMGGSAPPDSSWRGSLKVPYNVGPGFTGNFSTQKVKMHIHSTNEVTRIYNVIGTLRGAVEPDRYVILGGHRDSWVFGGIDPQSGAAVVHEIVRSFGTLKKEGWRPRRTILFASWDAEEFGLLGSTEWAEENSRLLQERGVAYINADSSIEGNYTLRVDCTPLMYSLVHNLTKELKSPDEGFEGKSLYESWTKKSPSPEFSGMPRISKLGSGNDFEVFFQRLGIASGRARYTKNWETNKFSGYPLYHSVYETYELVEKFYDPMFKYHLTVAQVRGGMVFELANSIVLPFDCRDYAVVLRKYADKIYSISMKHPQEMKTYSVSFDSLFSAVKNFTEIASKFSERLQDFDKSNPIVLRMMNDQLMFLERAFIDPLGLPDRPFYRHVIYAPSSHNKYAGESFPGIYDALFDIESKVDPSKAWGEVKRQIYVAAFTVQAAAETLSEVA

For `[N-]=[N+]=NCCCNC(=O)[C@@H](Cc1ccc(O)cc1)NC(=O)[C@@H](Cc1ccccc1)NC(=O)CCC(=O)NCCCCCC(=O)N(CCCC[C@H](NC(=O)N[C@@H](CCC(=O)O)C(=O)O)C(=O)O)Cc1ccc(Br)cc1`, the negative logarithm of the IC50 (pIC50) in [1] was 5.50.

Take `CN1/C(=C/C=C/C=C/C2=[N+](CCCCCC(=O)O)c3ccc(S(=O)(=O)[O-])cc3C2(C)C)C(C)(C)c2cc(S(=O)(=O)O)ccc21`: the Drug uptake was determined as 57.5% in data set [2], 98.4% in data set [3] and 41.1% in data set [4]. Moreover, the 50% cytotoxic concentration (CC50) in the data set with LNCaP and in the data set on PC-3 was over 100 µM throughout.

On to `[N-]=[N+]=NCCCNC(=O)[C@@H](Cc1ccccc1)NC(=O)[C@@H](Cc1ccccc1)NC(=O)CCC(=O)NCCCCCC(=O)N(CCCC[C@H](NC(=O)N[C@@H](CCC(=O)O)C(=O)O)C(=O)O)Cc1cccc(Cl)c1`, for which the pIC50 in [1] was 7.34.

With `[N-]=[N+]=NCCCNC(=O)[C@H](Cc1ccc(O)cc1)NC(=O)[C@H](Cc1ccccc1)NC(=O)CCC(=O)NCCCCCC(=O)N(CCCC[C@H](NC(=O)N[C@@H](CCC(=O)O)C(=O)O)C(=O)O)Cc1ccc(Br)cc1`, in [1], the pIC50 was 7.77. The 50% cytotoxic concentration (CC50) with MCF7 and in the data set on A549 was over 100 µM throughout. For the same compound, the cytotoxic concentration (CC50) at 120 h in [5] and in data set [6] was over 100 µM each time.

For `[N-]=[N+]=NCCCNC(=O)[C@H](Cc1ccccc1)NC(=O)[C@H](Cc1ccccc1)NC(=O)CCC(=O)NCCCC(=O)N(CCCC[C@H](NC(=O)N[C@@H](CCC(=O)O)C(=O)O)C(=O)O)Cc1ccccc1`, the pIC50 in [1] is 6.76. In addition, the 50% cytotoxic concentration (CC50) in the data set with MCF7 and with A549 was over 100 µM each time. The CC50 at 120 h in data set [5] and in [6] was over 100 µM throughout.

With `[N-]=[N+]=NCCCNC(=O)[C@H](Cc1ccccc1)NC(=O)[C@H](Cc1ccccc1)NC(=O)CCC(=O)NCCCCCC(=O)N(CCCC[C@H](NC(=O)N[C@@H](CCC(=O)O)C(=O)O)C(=O)O)Cc1ccc(Br)cc1`, the pIC50 in data set [1] was 7.30. Also, the CC50 with MCF7 and in the data set with A549 was over 100 µM each time. The CC50 at 120 h in data set [5] and in data set [6] was over 100 µM throughout.

Regarding `[N-]=[N+]=NCCCNC(=O)[C@H](Cc1ccccc1)NC(=O)[C@H](Cc1ccccc1)NC(=O)CCC(=O)NCCCCCC(=O)N(CCCC[C@H](NC(=O)N[C@@H](CCC(=O)O)C(=O)O)C(=O)O)Cc1ccc(Cl)cc1`, the pIC50 in data set [1] was 7.26.

For `[N-]=[N+]=NCCCNC(=O)[C@@H](Cc1ccc(O)c(Br)c1)NC(=O)[C@@H](Cc1ccccc1)NC(=O)CCC(=O)NCCCCCC(=O)N(CCCC[C@H](NC(=O)N[C@@H](CCC(=O)O)C(=O)O)C(=O)O)Cc1cccc(Cl)c1`, the pIC50 in data set [1] was 7.10.

For `[N-]=[N+]=NCCCNC(=O)[C@@H](Cc1ccccc1)NC(=O)[C@@H](Cc1ccccc1)NC(=O)CCC(=O)NCCCCCC(=O)N(CCCC[C@H](NC(=O)N[C@@H](CCC(=O)O)C(=O)O)C(=O)O)Cc1ccc(Cl)c(F)c1`, the pIC50 in data set [1] was 6.53. Also, the 50% cytotoxic concentration (CC50) in the data set on MCF7 and in the data set with A549 was over 100 µM in each case. Besides, the cytotoxic concentration (CC50) at 120 h in [5] is 51 µM; in [6], over 100 µM.

Take `[N-]=[N+]=NCCCNC(=O)[C@@H](Cc1ccc(O)c(Br)c1)NC(=O)[C@@H](Cc1ccccc1)NC(=O)CCC(=O)NCCCCCC(=O)N(CCCC[C@H](NC(=O)N[C@@H](CCC(=O)O)C(=O)O)C(=O)O)Cc1ccc(Br)cc1`: the pIC50 in data set [1] is 7.05.

On to `[N-]=[N+]=NCCCNC(=O)[C@@H](Cc1ccc(O)cc1)NC(=O)[C@@H](Cc1ccccc1)NC(=O)CCC(=O)NCCCCCC(=O)N(CCCC[C@H](NC(=O)N[C@@H](CCC(=O)O)C(=O)O)C(=O)O)Cc1cccc(Cl)c1`, for which the negative logarithm of the IC50 (pIC50) in [1] was 6.97.

For `NCCCC[C@H](NC(=O)N[C@@H](CCC(=O)O)C(=O)O)C(=O)O`, the cytotoxic concentration (CC50) with MCF7 and in the data set with A549 was over 100 µM each time. Moreover, the CC50 at 120 h in data set [5] and in [6] was over 100 µM throughout.

For `[N-]=[N+]=NCCCNC(=O)[C@H](Cc1ccc(O)cc1)NC(=O)[C@H](Cc1ccccc1)NC(=O)CCC(=O)NCCCCCC(=O)N(CCCC[C@H](NC(=O)N[C@@H](CCC(=O)O)C(=O)O)C(=O)O)Cc1ccc(Cl)c(F)c1`, the pIC50 in [1] was 7.21. Besides, the CC50 in the data set with MCF7 and with A549 was over 100 µM in each case. In addition, the cytotoxic concentration (CC50) at 120 h in data set [5] and in data set [6] was over 100 µM each time.

Consider `[N-]=[N+]=NCCCNC(=O)[C@H](Cc1ccc(O)cc1)NC(=O)[C@H](Cc1ccccc1)NC(=O)CCC(=O)NCCCCCC(=O)N(CCCC[C@H](NC(=O)N[C@@H](CCC(=O)O)C(=O)O)C(=O)O)Cc1ccc(Cl)cc1`, for which the pIC50 in data set [1] is 7.34.

As to `[N-]=[N+]=NCCCNC(=O)[C@H](Cc1ccccc1)NC(=O)[C@H](Cc1ccccc1)NC(=O)CCC(=O)NCCCCCC(=O)N(CCCC[C@H](NC(=O)N[C@@H](CCC(=O)O)C(=O)O)C(=O)O)Cc1ccc(Cl)cc1F`, in data set [1], the pIC50 is 7.37. In addition, the cytotoxic concentration (CC50) in the data set on MCF7 and in the data set on A549 was over 100 µM each time. In addition, the CC50 at 120 h in [5] and in [6] was over 100 µM each time.

In the case of `[N-]=[N+]=NCCCNC(=O)[C@H](Cc1ccccc1)NC(=O)[C@H](Cc1ccccc1)NC(=O)CCC(=O)NCCCCCC(=O)N(CCCC[C@H](NC(=O)N[C@@H](CCC(=O)O)C(=O)O)C(=O)O)Cc1cccc(Cl)c1`, the negative logarithm of the IC50 (pIC50) in data set [1] is 7.42.

`[N-]=[N+]=NCCCNC(=O)[C@@H](Cc1ccccc1)NC(=O)[C@@H](Cc1ccccc1)NC(=O)CCC(=O)NCCCCCC(=O)N(CCCC[C@H](NC(=O)N[C@@H](CCC(=O)O)C(=O)O)C(=O)O)Cc1ccc(Br)cc1`: the pIC50 in data set [1] is 6.50. Besides, the CC50 in the data set on MCF7 and with A549 was over 100 µM each time. Moreover, the CC50 at 120 h in [5] was 88 µM; in [6], over 100 µM.

With `[N-]=[N+]=NCCCNC(=O)[C@H](Cc1ccc(O)cc1)NC(=O)[C@H](Cc1ccccc1)NC(=O)CCC(=O)NCCCCCC(=O)N(CCCC[C@H](NC(=O)N[C@@H](CCC(=O)O)C(=O)O)C(=O)O)Cc1cccc(Cl)c1`, the cytotoxic concentration (CC50) in the data set with LNCaP, in the data set on PC-3, in the data set on MCF7 and in the data set on A549 was over 100 µM throughout. The negative logarithm of the IC50 (pIC50) in data set [1] is 8.52. In addition, in data set [1], the pKi is 9.00. Besides, the 50% cytotoxic concentration (CC50) at 120 h in data set [5] and in data set [6] was over 100 µM in each case.

With `[N-]=[N+]=NCCCNC(=O)[C@@H](Cc1ccc(O)cc1)NC(=O)[C@@H](Cc1ccccc1)NC(=O)CCC(=O)NCCCCCC(=O)N(CCCC[C@H](NC(=O)N[C@@H](CCC(=O)O)C(=O)O)C(=O)O)Cc1ccc(Cl)cc1`, the pIC50 in data set [1] is 7.57.

As for `[N-]=[N+]=NCCCNC(=O)[C@H](Cc1ccccc1)NC(=O)[C@H](Cc1ccccc1)NC(=O)CCC(=O)NCCCCCC(=O)N(CCCC[C@H](NC(=O)N[C@@H](CCC(=O)O)C(=O)O)C(=O)O)Cc1ccc(Cl)c(F)c1`, in data set [1], the negative logarithm of the IC50 (pIC50) was 7.20. Moreover, the CC50 with MCF7 and in the data set on A549 was over 100 µM each time. In addition, the cytotoxic concentration (CC50) at 120 h in data set [5] is 71 µM; in [6], over 100 µM.

As to `[N-]=[N+]=NCCCNC(=O)[C@@H](Cc1ccccc1)NC(=O)[C@@H](Cc1ccccc1)NC(=O)CCC(=O)NCCCCCC(=O)N(CCCC[C@H](NC(=O)N[C@@H](CCC(=O)O)C(=O)O)C(=O)O)Cc1ccc(Cl)cc1`, the negative-log IC50 (pIC50) in [1] is 6.65.

In the case of `[N-]=[N+]=NCCCNC(=O)[C@H](Cc1ccccc1)NC(=O)[C@H](Cc1ccccc1)NC(=O)CCC(=O)NCCCCCC(=O)NCCCC[C@H](NC(=O)N[C@@H](CCC(=O)O)C(=O)O)C(=O)O`, the half-maximal cytotoxic concentration (CC50) in the data set on MCF7 and in the data set with A549 was over 100 µM in each case. In addition, the figures for the CC50 at 120 h in data set [5] and in [6] were 62 µM and over 100 µM, respectively.

`[N-]=[N+]=NCCCNC(=O)[C@@H](Cc1ccc(O)cc1)NC(=O)[C@@H](Cc1ccccc1)NC(=O)CCC(=O)NCCCCCC(=O)N(CCCC[C@H](NC(=O)N[C@@H](CCC(=O)O)C(=O)O)C(=O)O)Cc1ccc(Cl)c(F)c1`: in data set [1], the negative-log IC50 (pIC50) is 6.97.

On to `[N-]=[N+]=NCCCNC(=O)[C@H](Cc1ccccc1)NC(=O)[C@H](Cc1ccccc1)NC(=O)CCC(=O)NCCCCCC(=O)N(CCCC[C@H](NC(=O)N[C@@H](CCC(=O)O)C(=O)O)C(=O)O)Cc1ccccc1`, for which the pIC50 in data set [1] was 7.55. Besides, the half-maximal cytotoxic concentration (CC50) in the data set with MCF7 and in the data set on A549 was over 100 µM in each case. For the same compound, the CC50 at 120 h in data set [5] was 114 µM; in data set [6], over 100 µM.
